Reference: PubChem BioAssay AID179 (DTP/NCI, 2004)
Where “and” joins values, the source holds several entries; their conditions need not be identical. Equal entries are not always repeated. Calls of active or inactive are those of the source.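 How the source made its calls: active means compounds giving half or more protection of infected cells from virus-caused growth loss, again on retest; inactive means the rest.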 Where a SMILES comes first, the peptide text is derived from it. [ ]: non-standard residue; d: D form. The star is where a group is joined. ξ: configuration not given here. ξPhe(4-NO2) = NC(Cc1ccc([N+](=O)[O-])cc1)C(=O)O; Boc = CC(C)(C)OC(=O)*; OBn = c1ccc(CO*)cc1

Test system: CEM cells HIV-1 protection, formazan growth assay
Experiment: NCI AIDS Antiviral Assay
Conditions: for IC50: measured here: growth of uninfected CEM cells
How it was run: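 Human CEM cells, uninfected and HIV-1-infected, exposed to five drug concentrations; growth measured by soluble formazan assay and scored as percent protection from infection, with protecting compounds retested.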

SMILES	EC50 [µM]	IC50	outcome
Cc1ccc(C(=O)c2c(C)cccc2C(=O)O)c(C)c1	> 200	> 200 µM	
O=C1c2ccccc2N2OC3C4CCC(C4)C3C12c1ccccc1 (configuration not stated)	> 16.2	11.5 µM	
CCOC(=O)C1c2[nH]c3ccccc3c2CCN1C(=O)c1ccco1 (configuration not stated)	> 77.6	> 77.6 µM	
O=C1NC(Cc2ccc(O)cc2)C(=O)NC1Cc1ccc(O)cc1 (configuration not stated)	> 100	> 100 µM	
O=c1cnn(C2OC(C(O)CO)C(O)C2O)c(=O)[nH]1 (configuration not stated)			inactive
COc1ccccc1N1C(=O)C2c3[nH]c4ccccc4c3C3CCC(C(C)(C)C)CC3C2C1=O (configuration not stated)	> 1.2	> 1.2 µM	
COc1cc2c(cc1C)C1=C(C)C(=O)OC1[C@@H](O)[C@@H]2C (some centres not stated)	> 661	245 µM	
O=C(Nc1ccc(C2=NCCN2)cc1)c1ccc(C(=O)Nc2ccc(C3=NCCN3)cc2)c(Br)c1	8.32	20.9 µM	
Cn1c(/C=C(\O)c2ccccc2)nc2ccccc21	> 105	83.2 µM	
CC(=O)OC(C(=O)[O][Ge]([CH3])([CH3])[CH3])c1ccccc1 (configuration not stated)			inactive
CCCCCCCCCO/N=C\c1c2c(O)c3c(O)c(C)c4c(c3c1O)C(=O)C(C)(O/C=C\C(OC)C(C)C(OC(C)=O)C(C)C(O)C(C)C(O)C(C)/C=C\C=C(\C)C(=O)N2)O4 (configuration not stated)	> 200	3.16 µM	
O=C(CC1(O)C(=O)Nc2ccc(Br)cc21)c1ccc2c(c1)OCO2 (configuration not stated)	> 200	178 µM	
CCOC(=O)/C(C#N)=C1\SS/C(=C(/C#N)C(=O)OCC)S1	> 200	19.5 µM	
CN(C)CCNc1ccc([N+](=O)[O-])c2nc3ccccc3c(N)c12	> 200	1.95 µM	
COc1ccc(C(=O)Nc2ccc(S(=O)(=O)NCC(=O)O)cc2)cc1			inactive
COc1ccc(NC2Oc3cc4c(cc3C(c3cc(OC)c(OC)c(OC)c3)C2C)OCO4)cc1 (configuration not stated)	> 20	0.398 µM	
O=C(O)c1cc[c]([Sb](=[O])([OH])[OH])cc1[N+](=O)[O-]	10.2	398 µM	
COP(=O)(OC)C1c2ccccc2-c2cccc(C(=O)O)c21 (configuration not stated)	> 200	> 200 µM	
CCOC(=O)c1cc2c(nc1N)-c1ncccc1CC2	> 19.5	0.219 µM	
COC(=O)C1(Cc2cccc(Cl)c2)CCCCCCN1C(=O)c1ccccc1 (configuration not stated)	> 112	20.4 µM	
Cc1ccc(N(C)S(=O)(=O)c2ccccc2[N+](=O)[O-])cc1	10.7	36.3 µM	

SMILES	EC50 [µM]	IC50	outcome
N#Cc1ccsc1C#N	> 200	> 200 µM	
CC(=O)c1c(-c2cccc3ccccc23)c(C#N)c(=S)n(C2OC(CO)C(O)C(O)C2O)c1C (configuration not stated)	> 200	132 µM and 53.7 µM	
CCc1cc2c(oc3cc4ccccc4cc32)c(=O)[nH]1	> 200	> 200 µM	
CCOC(=O)/C(C#N)=C1/Sc2c(ncn(/N=C/c3ccc(OC)cc3)c2=O)N1c1ccccc1	> 7.94	> 7.94 µM	
O=[N+]([O-])c1ccc([I+]c2ccccc2)cc1	> 200	2.57 µM	
Cc1ccc(C2=C(c3ccccc3)C(Br)(c3ccccc3)C(c3ccccc3)=C2c2ccc(C)cc2)cc1	> 26.9	> 26.9 µM	
C[C@]12CCC3(CC1C(=O)CC[C@@H]2OCc1ccccc1)OCCO3 (some centres not stated)			active
Cc1cc(N(CCC#N)CCC#N)ccc1C=Nc1ccc(C(=O)NN2C(=O)/C(=C/c3ccc(N(CCC#N)CCC#N)cc3)N=C2c2cc([N+](=O)[O-])ccc2Cl)cc1	> 44.7	> 44.7 µM	
O=c1[nH]c(=O)n(C2CC(O)C(CO)O2)c2nc3cc4ccccc4cc3nc12 (configuration not stated)	> 200	> 200 µM	
Nc1nc(Nc2ccc(Cl)c(Cl)c2)c(N=O)c(=O)[nH]1	> 200	3.72 µM	
CC(C)(C)OC(=O)NC(Cc1ccc([N+](=O)[O-])cc1)C(=O)NCC(=O)OCc1ccccc1 (configuration not stated) (Boc-[ξPhe(4-NO2)]-Gly-OBn)	> 200	33.1 µM	
COC(=O)[C@@]12C=CC(=O)[C@H]3C[C@@H](C(C(C)C)C1)[C@]32OC (some centres not stated)			inactive
CCOC(=O)NP(=O)(NC(=O)OCC)NC(=O)OCC			inactive
CCOC(=O)C1=C(c2ccccc2)N(C(C)=O)Cc2ccccc21	> 50.1	28.2 µM	
Cc1cc2oc(-c3ccccc3)c(C)c(=O)c2c2c1OC(C)(C)S2	> 39.8	> 39.8 µM	
CC(=O)NC(C)(C)C1CC=C(C)/C(=N\O)C1 (configuration not stated)	> 1120	776 µM	
C=C(C)C(C(=O)OC(c1ccccc1)c1ccccc1)N1C(=O)C(NC(=O)COc2ccccc2)C1SSc1nc2ccccc2s1 (configuration not stated)	> 200	8.32 µM	
CN1CCOC1(C)c1ccccc1 (configuration not stated)	> 200	> 200 µM	
COC(=O)N1CCC(Sc2ccccc2)C2(CCOC(=O)c3ccccc3)CCC(O)C12 (configuration not stated)	> 40.7	> 40.7 µM	
CCCCCCO/N=C\c1c2c(O)c3c(O)c(C)c4c(c3c1O)C(=O)C(C)(O/C=C\C(OC)C(C)C(OC(C)=O)C(C)C(O)C(C)C(O)C(C)/C=C\C=C(\C)C(=O)N2)O4 (configuration not stated)	> 200	5.37 µM	
COc1cc(/C=N/NC2=NCCCCN2)ccc1O	> 200	> 200 µM	

SMILES	EC50 [µM]	IC50	outcome
c1ccc2[nH]c(C3CCCCO3)nc2c1 (configuration not stated)	> 200	> 200 µM	
COc1cc(CNc2nc3c(NC(C)=O)cc(C(F)(F)F)cc3nc2-c2ccccc2)cc(OC)c1OC	> 13.8	11.7 µM	
COc1cc2cnc3c4cc(OC)c(OC(C)C)cc4ccc3c2cc1OC	> 5.37	> 5.37 µM	
O=C(O)CC(NC(=O)/C(=C/c1ccccc1O)NC(=O)c1ccccc1)C(=O)O (configuration not stated)	> 200	110 µM	
CC(C)(CCl)NC(=O)c1cccc(C(=O)NC(C)(C)CCl)n1	> 28.8	> 28.8 µM	
COc1ccc(C2C(Cl)C(=O)N2NC(=O)c2ccccc2O)cc1 (configuration not stated)	> 145	> 145 µM	
C=C1N(C=O)C(C)(C)N(O)C1(C)C	> 200	> 200 µM	
CC(=O)OC1CCn2c1nc1cc([N+](=O)[O-])c(C)cc12 (configuration not stated)	> 200	> 200 µM	
CCN(CC)CC1CCCCN1CC(=O)N1c2ccc(Br)cc2C(=O)Nc2cccnc21 (configuration not stated)	> 200	> 200 µM	
CC(=O)N(CN1C(=O)CCC1C(=O)O)c1ccccc1Cl (configuration not stated)			inactive
CCOC1(OCC)CS(=O)(=O)C1c1ccc([N+](=O)[O-])cc1 (configuration not stated)	> 200	> 200 µM	
CN(C)CCC(=O)CCN(C)C	> 1020	186 µM	
Cc1nc2ccc(S(=O)(=O)NS(=O)(=O)c3ccc(-c4ccccc4)cc3)cc2c(=O)n1NS(=O)(=O)c1ccc(-c2ccccc2)cc1	> 200	170 µM	
CCNc1nc2c(ncn2C2CC(O)C(COP(=O)(O)O)O2)c(=O)[nH]1 (configuration not stated)	> 100	> 100 µM	
CN1NC2=NCCN=C3NN(C)C(=NCCN=C1S2)S3		> 200 µM	inactive
O=[N+]([O-])/C(Cl)=C(\Nc1ccccc1)C(Cl)=C(Cl)Cl	> 200	32.4 µM	
COc1cc(-c2c(C(C)=O)c(-c3ccccc3)n(C3OC(COC(C)=O)C(OC(C)=O)C(OC(C)=O)C3OC(C)=O)c(=S)c2C#N)ccc1O (configuration not stated)	> 200	74.1 µM and 45.7 µM	
CCCCCCCCCCCC(=O)CC(=O)c1c(O)cccc1O	> 15.5	> 15.5 µM	
OC1CCOC1(O)c1ccccn1 (configuration not stated)	> 200	> 200 µM	
C/C(=N\NC(N)=O)C(CN(C)C)C(c1ccccc1)c1c(O)c2ccccc2oc1=O (configuration not stated)	> 91.2	66.1 µM	
CCCCCCCCOCC(O)COC(=O)CCCCCCC (configuration not stated)	> 251	20.9 µM	

SMILES	EC50 [µM]	IC50	outcome
COC(=O)CN1Cc2cc(C)cc(c2O)CN(CC(=O)OC)Cc2cc(C)cc(c2O)CN(CC(=O)OC)Cc2cc(C)cc(c2O)C1	> 200	19.5 µM	
C[C@H](CCC(=O)O)[C@H]1CC[C@H]2[C@@H]3[C@H](O)C[C@@H]4C[C@H](O)CC[C@]4(C)[C@H]3CC[C@]12C	> 200	39.8 µM	
COc1c(-c2ccccc2)oc2c(ccc3occc32)c1=O	> 95.5	> 95.5 µM	
O=c1n(-c2ccc(Cl)c(Cl)c2)c(=O)n(-c2ccc(Cl)c(Cl)c2)c(=O)n1-c1ccc(Cl)c(Cl)c1	> 200	5.89 µM	
CN1c2ccccc2N(C)C23N(C)c4ccccc4N(C)C12N(C)c1ccccc1N3C (configuration not stated)	> 43.7	> 43.7 µM	
N#Cc1nc2ccccc2nc1N1CCN(c2ccc([N+](=O)[O-])cc2)CC1	> 200	> 200 µM	
N#CC(C#N)=C1SC(=Nc2ccccc2)C(=Nc2ccccc2)N1c1ccccc1	> 200	1 µM	
CCCCCCCCCCCCCCCC(=O)Nc1ccn(C2CCC(COP(=O)(O)OCC3OC(n4ccc(NC(=O)CCCCCCCCCCCCCCC)nc4=O)CC3OP(=O)(O)OCC3OC(n4cc(C)c(=O)[nH]c4=O)CC3N=[N+]=[N-])O2)c(=O)n1 (configuration not stated)	0.0282	15.1 µM	
CN1CCN(C(=O)/N=N\C(=O)N2CCN(C)CC2)CC1	> 200	> 200 µM	
NS(=O)(=O)c1cc2c(cc1C(F)(F)F)NCNS2(=O)=O	> 759	> 759 µM	
COC(=O)C1CC2CC1C1C2SC(F)(F)C1(F)F (configuration not stated)	> 200	> 200 µM	
Cc1nc(-n2nc(-c3ccccc3)cc2-c2ccccc2)sc1C(=O)/C=C/c1ccc(Cl)c(Cl)c1	> 26.3	> 26.3 µM	
CC(=O)OCC1OC(NC(=S)Nn2c(=O)[nH]c3ccccc3c2=O)C(OC(C)=O)C(OC(C)=O)C1OC(C)=O (configuration not stated)	> 200	> 200 µM	
COc1ccc(-c2oc3cc(OC)c(OC)c(OC)c3c(=O)c2OC)cc1OC	> 200	3.8 µM	
COc1cc(C2c3cc4c(cc3OC(N3CCOCC3)C2C)OCO4)cc(OC)c1OC(C)=O (configuration not stated)	> 200	3.31 µM	
C[C@@H]1S[C@H](c2c(F)cccc2Cl)n2c1nc1ccccc12	3.55	12.9 µM	
O=[N+]([O-])C(=C(Cl)Cl)C(Cl)=C(Cl)Cl	> 200	> 200 µM	
O=C(CCC(=O)C(C(=O)c1ccccc1)c1ccccc1)Nc1cccc(C(F)(F)F)c1 (configuration not stated)			inactive
COc1ccc2nc3ccc(OC)cc3c(SCC3CO3)c2c1 (configuration not stated)	> 200	3.63 µM	
O=S1(=O)Oc2cccc3cccc1c23			inactive
